One assay has as its target Biotin carboxylase (Pseudomonas aeruginosa (strain ATCC 15692 / DSM 22644 / CIP 104116 / JCM14847 / LMG 12228 / 1C / PRS 101 / PAO1), UniProt P37798). Nature of the assay: Inhibition of recombinant N-terminal His-tagged Pseudomonas aeruginosa PAO1 biotin carboxylase expressed in Escherichia coli Rosetta(DE3) pLysS cells using biotin as substrate by spectroscopic analysis.

Assay [1] has as its system Escherichia coli. Nature of the assay: Antibacterial activity against Escherichia coli DM4100 harboring deltatolC mutant measured after 18 to 20 hrs by broth microdilution method. In kind it is functional.
For assay [2], the system named is Escherichia coli. Nature of the assay: Antibacterial activity against Escherichia coli DM4100 harboring deltatolC mutant measured after 18 to 20 hrs in presence of permeabilizing agent PMBN by broth microdilution method. In kind it is functional. (In general: Broth dilution looks for growth in wells or tubes with falling amounts of substance.)
The next assay has as its system Pseudomonas aeruginosa. Nature of the assay: Antibacterial activity against Pseudomonas aeruginosa PAO1 PAM1262 harboring MexAB-OprM/MexCD-OprJ/MexEF-OprN deletion mutant measured after 18 to 20 hrs by broth microdilution method. It is filed as functional.
The test system of assay [3] is Escherichia coli. The experiment in a line: Induction of cytological changes in Escherichia coli ATCC 25922 assessed as formation of short chains of three to eight cells at 150 ug/ml measured after 2 hrs by FM 4-64/DAPI staining based microscopic analysis. It is filed as functional, organism-based.

Among the data in ChEMBL document CHEMBL4406811, “Optimization and Mechanistic Characterization of Pyridopyrimidine Inhibitors of Bacterial Biotin Carboxylase” (J Med Chem, 2019) are IC50, MIC and Activity values, retold here.

≈ marks a conversion by molar mass, not a printed value. Calls of active or inactive are those of the source. No cut-off for these calls is given here.

Sequence of Biotin carboxylase (P37798 whole entry): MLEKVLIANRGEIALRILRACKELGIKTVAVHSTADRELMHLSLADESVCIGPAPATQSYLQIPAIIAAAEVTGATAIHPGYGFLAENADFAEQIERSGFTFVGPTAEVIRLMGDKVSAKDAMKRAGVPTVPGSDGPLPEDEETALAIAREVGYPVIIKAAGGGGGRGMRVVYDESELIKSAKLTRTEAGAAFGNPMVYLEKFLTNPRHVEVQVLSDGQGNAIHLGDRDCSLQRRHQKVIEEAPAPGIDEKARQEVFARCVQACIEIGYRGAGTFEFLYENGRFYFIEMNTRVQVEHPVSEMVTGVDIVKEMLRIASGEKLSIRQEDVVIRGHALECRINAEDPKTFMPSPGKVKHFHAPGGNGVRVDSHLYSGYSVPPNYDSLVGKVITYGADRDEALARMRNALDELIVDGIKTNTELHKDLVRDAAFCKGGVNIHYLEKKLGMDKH

As a reminder, the IC50 is the concentration at which inhibition is half-maximal. What is called MIC is the lowest concentration found to suppress growth. As for `CC(C)COc1cccc(Cl)c1-c1cc2cnc(N)nc2nc1N`, on Biotin carboxylase, the IC50 came to 93 nM. The MIC in the assay on Escherichia coli [1] was 0.25 µg/mL (≈ 0.727 µM); in the assay on Escherichia coli [2] it was at most 0.06 µg/mL.
For the compound `Nc1ncc2cc(-c3c(Cl)cccc3-c3cccnc3)c(N)nc2n1`, on Biotin carboxylase, the concentration for half-maximal inhibition (IC50) came to 36 nM. Moreover, the values for the MIC against Escherichia coli [1], with Escherichia coli [2] and in the assay with Pseudomonas aeruginosa were 0.12 µg/mL (≈ 0.344 µM), 0.06 µg/mL and 4 µg/mL (≈ 11.5 µM), respectively.
With `Nc1ncc2cc(-c3c(Cl)cccc3Cl)c(N3C[C@@H]4[C@@H](N)[C@@H]4C3)nc2n1`, the IC50 at Biotin carboxylase was 33 nM. Besides, the MIC was found to be 0.12 µg/mL (≈ 0.31 µM) against Escherichia coli [1] and 0.06 µg/mL in the assay with Escherichia coli [2].
For `NC(=O)C1CCN(c2nc3nc(N)ncc3cc2-c2c(Cl)cccc2Cl)C1` (centres undefined), in that order: 170 nM, 0.5 µg/mL (≈ 1.24 µM) and 0.12 µg/mL.
Consider `NCC1(O)CCN(c2nc3nc(N)ncc3cc2-c2c(Cl)cccc2Cl)C1` (centres undefined), for which the IC50 at Biotin carboxylase was determined as 83 nM. The MIC is 1 µg/mL (≈ 2.47 µM) against Escherichia coli [1], 0.25 µg/mL in the assay with Escherichia coli [2] and over 64 µg/mL against Pseudomonas aeruginosa.
Turning to `Nc1ncc2cc(-c3c(Cl)cccc3-c3ccncc3)c(N3C[C@@H]4[C@@H](N)[C@@H]4C3)nc2n1`, the 50% inhibitory concentration (IC50) on Biotin carboxylase is at most 15 nM. For the same compound, the minimum inhibitory concentration (MIC) against Escherichia coli [1] is 0.03 µg/mL (≈ 0.0698 µM); in the assay on Escherichia coli [2], 0.015 µg/mL; in the assay with Pseudomonas aeruginosa it was 2 µg/mL (≈ 4.65 µM).
In the case of `Nc1ncc2cc(-c3c(Cl)cccc3Cl)c(N3CCC(CO)C3)nc2n1` (centres undefined), on Biotin carboxylase, the IC50 was 140 nM. Moreover, the MIC worked out at 0.25 µg/mL (≈ 0.641 µM) against Escherichia coli [1] and 0.12 µg/mL in the assay on Escherichia coli [2].
With `NCC1(F)CCN(c2nc3nc(N)ncc3cc2-c2c(Cl)cccc2Cl)C1` (centres undefined), the IC50 on Biotin carboxylase came out at 440 nM. For the same compound, the MIC with Escherichia coli [2] worked out at 1 µg/mL.
As to `COc1ccc(-c2cccc(Cl)c2-c2cc3cnc(N)nc3nc2N)cn1`, the IC50 at Biotin carboxylase stood at 32 nM. Besides, the MIC in the assay on Escherichia coli [1] came to 0.06 µg/mL (≈ 0.158 µM); in the assay with Escherichia coli [2], 0.03 µg/mL.
Turning to `Nc1ncc2cc(-c3c(Cl)cccc3Cl)c(N3CCC(N)(CO)C3)nc2n1` (centres undefined), the IC50 at Biotin carboxylase was determined as 190 nM. Besides, the MIC turned out to be 1 µg/mL (≈ 2.47 µM) in the assay with Escherichia coli [1] and 0.25 µg/mL in the assay on Escherichia coli [2].
As for `NCC1CCN(c2nc3nc(N)ncc3cc2-c2c(Cl)cccc2Cl)C1` (centres undefined), the IC50 at Biotin carboxylase turned out to be 64 nM. Further, the MIC against Escherichia coli [1] was 0.5 µg/mL (≈ 1.28 µM); with Escherichia coli [2], 0.12 µg/mL. The outcome in the assay with Escherichia coli [3] was Active.
Consider `COc1ncc(-c2cccc(Cl)c2-c2cc3cnc(N)nc3nc2N2C[C@@H]3[C@@H](N)[C@@H]3C2)cc1F`, for which the concentration for half-maximal inhibition (IC50) at Biotin carboxylase is at most 15 nM. For the same compound, the figures for the MIC in the assay with Escherichia coli [1], in the assay with Escherichia coli [2] and against Pseudomonas aeruginosa were 0.015 µg/mL (≈ 0.0314 µM), 0.008 µg/mL and 2 µg/mL (≈ 4.18 µM), respectively.
Consider `Cc1ncc(-c2cccc(Cl)c2-c2cc3cnc(N)nc3nc2N2C[C@@H]3[C@@H](N)[C@@H]3C2)s1`, for which, at Biotin carboxylase, the IC50 is at most 15 nM. Moreover, the results for the MIC in the assay on Escherichia coli [1], in the assay on Escherichia coli [2] and against Pseudomonas aeruginosa were 0.008 µg/mL (≈ 0.0178 µM), 0.004 µg/mL and 1 µg/mL (≈ 2.22 µM), respectively.
Turning to `Nc1ncc2cc(-c3ccccc3-c3ccccc3)c(N)nc2n1`, the half-inhibitory concentration (IC50) at Biotin carboxylase was determined as 79 nM. For the same compound, the results for the MIC against Escherichia coli [1] and with Escherichia coli [2] were 0.5 µg/mL (≈ 1.6 µM) and 0.25 µg/mL, respectively.
As to `NCC1CCN(c2nc3nc(N)ncc3cc2-c2c(Cl)cccc2Cl)CC1`, the IC50 at Biotin carboxylase is 320 nM. The MIC against Escherichia coli [1] was found to be 1 µg/mL (≈ 2.48 µM); in the assay with Escherichia coli [2], 0.5 µg/mL; with Pseudomonas aeruginosa, 64 µg/mL (≈ 159 µM).
For the compound `Nc1ncc2cc(-c3c(Cl)cccc3Cl)c(N)nc2n1`, at Biotin carboxylase, the IC50 was found to be 320 nM. The MIC against Escherichia coli [1] was 0.5 µg/mL (≈ 1.63 µM); with Escherichia coli [2] it was 0.25 µg/mL; against Pseudomonas aeruginosa it was 16 µg/mL (≈ 52.3 µM).
`Nc1ncc2cc(-c3ccccc3-c3cccnc3)c(N)nc2n1`: the IC50 at Biotin carboxylase was found to be 130 nM. Also, the MIC was 2 µg/mL (≈ 6.36 µM) in the assay with Escherichia coli [1], 0.5 µg/mL with Escherichia coli [2] and 16 µg/mL (≈ 50.9 µM) with Pseudomonas aeruginosa.
